Where a name gives a salt, the structure may show the parent alone.
What was measured:
Assay type in all cases: cell-based
[1] = system: human leukocytes (basophils); assay: Inhibition of human leukocyte (basophil) histamine release in vitro (rabbit anti-human IgE); settings: Table A, 60 minutes at 37° C., Int. = interference with test procedure; for IC50: Leukocyte, 1 h, read-out: Inhibition IC50 (histamine release from human leukocytes (basophils))
Method: Separation of Leukocytes: A modification of the method of L. Lichtenstein and A. Osler, J.Exp.Med. 120, 507 (1964) was used. Heparinized human blood (80-100 ml) is mixed with 20 ml of saline (0.2%) containing 0.6 gm of dextrose and 1.2 gm dextran in propylene centrifuge tubes. The mixture is kept at ambient temperature for 60-90 minutes to allow the separation of erythrocytes from the platelet-leukocyte-rich supernate. The supernate is removed and centrifuged for 8 minutes at 110×g in cold. The leukocyte pellet is washed 2× with Tris buffer and finally suspended in 150-180 ml Tris-ACM buffer at 1-2×10^6 cells/ml. 2. Reaction Mixture: The reaction is carried out in 12×75 mm plastic tubes at a total volume of 1.25 ml. The reaction medium includes 0.05 ml rabbit anti-human IgE (the antigen), 0.2 ml of the test compound in water at concentrations ranging from 10-1000 μM, and 1.0 ml of the leukocyte suspension. The reaction mixture is incubated in a 37° C. shaking water bath for 60 minutes. Upon completion of the reaction, the tubes are centrifuged and the supernatants collected. The protein is removed from the supernatants by precipitation with 0.2 ml of 8% perchloric acid. 3. Histamine Assay: Histamine release is measured by the automated fluorometric method of W. Siraganian and W. Hook in Chapter 102 of the Manual of Clinical Immunology, 2nd Edition, Edited by R. Rose and H. Friedman, Published by the American Society for Microbiology, Washington, D.C. 1980. Percent inhibition is calculated as follows: [formula] The concentration which causes a 50 percent inhibition (IC50) of histamine release is interpolated from a plot of percent inhibition versus logarithm of drug concentration.

[2] = system: isolated guinea pig ileum; assay: Antagonism of histamine-induced contraction of isolated guinea pig ileum; settings: Cavia porcellus; Table C; histamine final concentration 0.2 μg/ml; read-out: Inhibition IC50 (histamine-induced contraction of isolated guinea pig ileum)
Method: The antagonism of the effects of histamine on the contraction of isolated guinea pig ileum by the compounds of formula I can be determined by the procedure of G. Possanza, A. Bauen, and P. Stewart, Int. Arch. Allergy Appl. Immunol., 49, 289 (1975). The degree of inhibition is determined as the difference between the contraction caused by histamine (final concentration 0.2 μg/ml) alone and that seen in the presence of both histamine and the test compound. The inhibitory activity of the test compound is expressed as that concentration of the compound which causes a 50% reduction of the contractile response (IC50).

[3] = system: rat peritoneal mast cells; assay: Inhibition of rat peritoneal mast cell histamine release; settings: Table B, in vitro, sheep anti-rat IgE or ovalbumin, 60 minutes at 37° C., Int. = interference with test procedure; for IC50: Mast cell, 1 h, read-out: Inhibition IC50 (histamine release from rat peritoneal mast cells)
Method: Harvest of Peritoneal Mast Cells: After the rats are sacrificed with ether, 20 ml of Minimum Essential Medium (MEM) containing 20 units/ml heparin is injected into the peritoneum. The abdomen is massaged for one minute and the lavage fluid collected. The peritoneal cells are centrifuged at 1800 rpm for 8 minutes in cold. After two washes with Tris A buffer, the cells are resuspended in Tris ACM buffer at 2-33 10^6 cells/ml. 2. Reaction Mixture: The reaction is carried out in 12×75 mm plastic tubes at a total volume of 1.25 ml. The reaction mixture includes 0.5 ml (10-1000 μg) sheep anti-rat IgE or ovalbumin, 0.2 ml of the test compound in water at concentrations ranging from 10-1000 μM, 0.5 ml phosphatidylserine solution (20-60 μg to each tube), and 0.5 ml of cell suspension. The reaction mixture is incubated in a 37° C. shaking water bath for 60 minutes. Upon completion of the reaction, the tubes are centrifuged and the supernatants collected. The protein is removed from the supernatants by precipitation with 0.2 ml of 8% perchloric acid. 3. Histamine Assay: Histamine release is measured by the automated fluorometric method of Siraganian, supra. The concentration which causes a 50% inhibition (IC50) of histamine release is computed as in Part A.

Row | Compound | IC50 [1] [µM] | IC50 [2] [nM] | IC50 [3] [µM] | Inhibition IC50 (histamine release from human leukocytes (basophils)) [1] | Inhibition IC50 (histamine release from rat peritoneal mast cells) [3]
1 | O=C(NCCCN1CCN(Cc2ccc(F)cc2)CC1)NC1CCCCC1 [Example 6, 1-{3-[4-(4-Fluorobenzyl)piperazin-1-yl]propyl}-3-cyclohexylurea dihydrochloride monohydrate] | 50 | 110 |  |  | 
2 | O=C(NCCCN1CCCN(Cc2ccc(Cl)cc2)CC1)NC1CCCCC1 [Example 17, 1-{3-[4-(4-Chlorobenzyl)homopiperazin-1-yl]propyl}-3-cyclohexylurea dihydrochloride] | 13 | 150 |  |  | 
3 | O=C(NCCCN1CCN(Cc2ccccc2)CC1)Nc1ccccc1 [Example 8, 1-[3-(4-Benzylpiperazin-1-yl)propyl]-3-phenylurea] | 400 | 210 |  |  | 
4 | CCCCCCCCNC(=O)NCCCN1CCN(Cc2ccc(Cl)cc2)CC1 [Example 5, 1{3-[4-(4-Chlorobenzyl)piperazin-1-yl]propyl}-3-n-octylurea diihydrochloride] | 16 | 750 | 210 |  | 
5 | CCCCCCNC(=O)NCCCN1CCN(Cc2ccc(Cl)c(C(F)(F)F)c2)CC1.Cl.Cl [Example 26, 1-{3-[4-(3-Trifluoromethyl-4-chlorobenzyl)piperazin-1-yl]propyl}-3-n-hexylurea dihydrochloride] |  | 90 |  | Int. | 
6 | N#Cc1ccc(NC(=O)NCCCN2CCN(CCCc3ccc(Cl)cc3)CC2)cc1 [Example 27, 1-{3-{4-[3-(4-Chlorophenyl)propyl]piperazin-1-yl}propyl}3-(4-cyanophenyl)urea dihydrocyloride monohydrate] | 20 | 110 |  |  | 
7 | CCCCCCNC(=O)NCCCN1CCN(CCc2ccc(Cl)cc2)CC1 [Example 23, 1-{3-[4-(4-Chlorophenethyl)piperazin-1-yl]propyl}-3-n-hexylurea dihydrochloride] | 16 | 20 |  |  | 
8 | S=C(NCCCN1CCN(Cc2ccc(Cl)cc2)CC1)Nc1ccccc1 [Example 20, 1-{3-[4-(4-Chlorobenzyl)piperazin-1-yl]propyl}-3-phenylthiourea] | 37 | 100 |  |  | 
9 | CCCCCCNC(=S)NCCCN1CCN(Cc2ccc(Cl)cc2)CC1 [Example 21, 1-{3-[4-(4-Chlorobenzyl)piperazin-1-yl]propyl}-3-n-hexylthiourea dihydrochloride hemihydrate] |  | 80 |  | Int. | 
10 | S=C(NCCCN1CCN(Cc2ccc(Cl)cc2)CC1)NC1CCCCC1 [Example 19, 1-{3-[4-(4-Chlorobenzyl)piperazin-1-yl]propyl}-3-cyclohexylthiourea] | 26 | 110 |  |  | 
11 | CNC(=O)NCCCN1CCN(Cc2ccc(Cl)cc2)CC1 [Example 2, 1-{3-[4-(4-Chlorobenzyl)piperazin-1-yl]propyl}-3-methylurea dihydrochloride] | 300 | 630 |  |  | 
12 | O=C(NCCCN1CCN(Cc2ccc(Cl)cc2)CC1)NCc1ccccc1 [Example 22, 1-{3-[4-(4-Chlorobenzyl)piperazin-1-yl]propyl}-3-benzylurea dihydrochloride] | 112 | 230 |  |  | 
13 | CCCCCCNC(=O)NCCCN1CCN(CCCc2ccc(Cl)cc2)CC1.Cl.Cl [Example 25, 1-{3-[4-[3-(4-Chlorophenyl)propyl]piperazin-1-yl]propyl}-3-n-hexylurea dihydrochloride] | 10 | 130 |  |  | Int.
14 | O=C(NCCCN1CCN(Cc2ccc(Cl)cc2)CC1)NC1CCCCC1 [Example 1, 1-{3-[4-(4-Chlorobenzyl)piperazin-1-yl]propyl}-3-cyclohexylurea dihydrochloride] | 50 | 15 | 108 |  | 
15 | CCCCNC(=O)NCCCN1CCN(Cc2ccc(Cl)cc2)CC1 [Example 3, 1-{3-[4-(4-Chlorobenzyl)piperazin-1-yl]propyl}-3-n-butylurea dihydrochloride hemihydrate] | 50 | 70 |  |  | 
16 | O=C(NCCCN1CCCN(Cc2ccc(Cl)cc2)CC1)Nc1ccccc1 [Example 18, 1-{3-[4-(4-Chlorobenzyl)homopiperazin-1-yl]propyl}-3-phenylurea dihydrochloride] | 15 | 550 |  |  | 
17 | O=C(NCCCN1CCN(Cc2ccccc2)CC1)NC1CCCCC1 [Example 7, 1-{3-(4-Benzylpiperazin-1-yl)propyl]-3-cyclohexylurea dihydrochloride] | 240 | 320 |  |  | 
18 | O=C(NCCCN1CCN(Cc2ccc(Cl)cc2)CC1)Nc1ccccc1 [Example 9, 1-{3-[4-(4-Chlorobenzyl)piperazin-1-yl]propyl}-3-phenylurea] | 78 | 50 | > 1000 |  | 
19 | C=CCNC(=O)NCCCN1CCN(Cc2ccc(Cl)cc2)CC1 [Example 28, 1-{3-[4-(4-Chlorobenzyl)piperazin-1-yl]propyl}-3-allylurea dihydrochloride] | 120 | 170 |  |  | 

The next lines start with the values.

Row | IC50 [1] [µM] | IC50 [2] [nM] | IC50 [3] [µM] | Inhibition IC50 (histamine release from human leukocytes (basophils)) [1] | Inhibition IC50 (histamine release from rat peritoneal mast cells) [3] | Compound
20 | 30 | 18 |  |  |  | O=C(NCCCN1CCN(Cc2ccc(Cl)cc2)CC1)Nc1ccc([N+](=O)[O-])cc1 [Example 16, 1-{3-[4-(4-Chlorobenzyl)piperazin-1-yl]propyl}-3-(4-nitrophenyl)urea dihydrochloride]
21 | 80 | 15 |  |  |  | COc1ccc(NC(=O)NCCCN2CCN(Cc3ccc(Cl)cc3)CC2)cc1 [Example 12, 1-{3-[4-(4-Chlorobenzyl)piperazin-1-yl]-propyl}-3-(4-methoxyphenyl)urea hydrochloride]
22 | 35 |  |  |  |  | CCOc1ccc(NC(=O)NCCCN2CCN(Cc3ccc(Cl)cc3)CC2)cc1 [Example 30, 1-{3-[4-(4-Chlorobenzyl)piperazin-1-yl]propyl}-3-(4-ethoxyphenyl)urea dihydrochloride]
23 | 20 | 60 |  |  |  | O=C(NCCCN1CCN(Cc2ccc(Cl)cc2)CC1)Nc1ccc(F)cc1 [Example 15, 1-{3-[4-(4-Chlorobenzyl)piperazin-1-yl]propyl}-3-(4-fluorophenyl)urea dihydrochloride monohydrate]
24 | 115 | 20 |  |  |  | CC(=O)c1ccc(NC(=O)NCCCN2CCN(Cc3ccc(Cl)cc3)CC2)cc1 [Example 29, 1-{3-[4-(4-Chlorobenzyl)piperazin-1-yl]propyl}-3-(4-acetylphenyl)urea dihydrochloride dihydrate]
25 | 30 | 150 |  |  |  | O=C(NCCCN1CCN(Cc2ccc(Cl)cc2)CC1)Nc1ccc(Cl)cc1 [Example 10, 1-{3-[4-(4-Chlorobenzyl)piperazin-1-yl]propyl}-3-(4-chlorophenyl)urea hydrochloride]
26 | 37 | 65 |  |  |  | Cc1ccc(NC(=O)NCCCN2CCN(Cc3ccc(Cl)cc3)CC2)cc1 [Example 11, 1-{3-[4-(4-Chlorobenzyl)piperazin-1-yl]propyl}-3-(4-methylphenyl)urea dihydrochloride monohydrate]
27 | 81 | 8 | 150 |  |  | N#Cc1ccc(NC(=O)NCCCN2CCN(Cc3ccc(Cl)cc3)CC2)cc1 [Example 24, 1-{3-[4-(4-Chlorobenzyl)piperazin-1-yl]propyl}-3-(4-cyanophenyl)urea dihydrochloride monohydrate]

From patent US4579947A, “Substituted phenylalkylpiperazinylpropyl (ureas or thioureas) useful for treatment of immunological, inflammatory and allergic disorder” (Boehringer Ingelheim Pharmaceuticals, Inc., priority 1984, dated 1986)
